Test results published in US20230391783A1, “COMPOUND CONTAINING 2,4-THIAZOLE RING, PREPARATION METHOD THEREFOR, AND APPLICATION THEREOF” (SHANDONG UNIVERSITY, priority 2021, published 2023).

System: lymphocytes (fresh spleen cells)
Assay: Lymphocyte proliferation assay (ConA-induced spleen cells)
Type: cell-based, rat
Conditions: 48 hours; for IC50: Rattus norvegicus, inhibition of lymphocyte proliferation, 5 μg/mL ConA; for Inhibition rate (%): lymphocyte proliferation induced with 5 μg/mL ConA, test concentration not given
Protocol: Lymphocytotoxicity test: rats were euthanized by spinal dislocation method, their spleens were aseptically removed and ground to make a single cell suspension. After removing red blood cells with 2 mL of red blood cell lysis buffer, the cell concentration was adjusted to 2×10^6 cells/mL using RPMI-1640 medium containing 10% fetal bovine serum (FBS). Next, 100 μL of the 2×10^6 cells/mL cell suspension and 100 μL of the appropriate concentration of the tested compound were added to each well of a 96-well plate, and the plate was incubated at 37° C. with 5% CO2 for 48 hours. At the end of the incubation period, 10 μL of CCK8 was added to each well, and the plate was returned to the incubator for 5-7 hours. The OD450 value was then measured at 450 nm using an enzyme-linked immunosorbent assay reader.
Lymphocyte proliferation assay: fresh spleen cells at a concentration of 2×10^6 cells/mL were incubated for 48 hours in an incubator maintained at 37° C. and 5% CO2 for 48 hours, and the culture medium was induced for cell proliferation with 5 μg/mL of ConA, and the appropriate concentration of the tested compound was added to test its inhibitory activity on lymphocyte proliferation. The test results of some compounds are shown in the table below and figures accompanying the application: […]

| Compound | IC50 [nM] | Inhibition rate (%) |
| --- | --- | --- |
| O=C(c1csc(-c2cnn3cccnc23)n1)N1CCC[C@H]1c1cccnc1 [IA-1] | 210 ± 8.87 | 81.38 |
| O=C(NCc1cccnc1)c1csc(NC(=O)c2cnn3cccnc23)n1 [IA-2] | 439 ± 24.2 | 65.17 |
| CC(C)=CCOC(=O)c1csc(-c2cnn3cccnc23)n1 [IA-4] | 438 ± 12.3 | 28.23 |
| O=C(NCc1ccc(F)cc1F)c1csc(-c2cnn3ccccc23)n1 [IA-5] |  | 47.15 |
| O=C(Nc1ccccc1)c1csc(-c2cnn3cccnc23)n1 [IA-6] |  | 40.69 |
| CC(C)=CCC/C(C)=C/COC(=O)c1csc(-c2cnn3cccnc23)n1 [IA-7] | 487 ± 18.3 | 52.55 |
| O=C(NCc1ccc(Cl)cc1Cl)c1csc(-c2cnn3cccnc23)n1 [IA-8] |  | 43.39 |
| O=C(c1csc(-c2cnn3cccnc23)n1)N1CCC[C@H]1c1ccccc1 [IA-9] | 399 ± 15.2 | 58.26 |
| O=C(Nc1cccnc1)c1csc(-c2cnn3cccnc23)n1 [IA-10] | 421 ± 21.1 | 59.61 |
| O=C(NCc1ccccc1)c1csc(-c2cnn3cccnc23)n1 [IA-11] | 263 ± 13.4 | 70.42 |
| O=C(NCCc1cccnc1)c1csc(-c2cnn3cccnc23)n1 [IA-12] | 236 ± 17.2 | 83.63 |
| O=C(c1csc(-c2cnn3cccnc23)n1)N1CCC[C@H]1c1ccncc1 [IA-13] | 410 ± 33.5 | 59.01 |
| COC(=O)[C@@H]1C[C@@H](O)CN1C(=O)c1csc(-c2cnn3cccnc23)n1 [IA-15] |  | 30.78 |
| COC(=O)C1CCCCN1C(=O)c1csc(-c2cnn3cccnc23)n1 (centres unmarked) [IA-16] |  | 28.83 |
| O=C(c1csc(-c2cnn3cccnc23)n1)N1CCC[C@H]1c1cc(F)ccc1F [IA-17] | 436 ± 33.4 | 46.55 |
| O=C(NCCC(F)(F)F)c1csc(-c2cnn3cccnc23)n1 [IA-18] |  | 43.09 |
| O=C(NCC(O)C(F)(F)F)c1csc(-c2cnn3cccnc23)n1 (centres unmarked) [IA-19] |  | 41.89 |
| O=C(NC1CCC(C(F)(F)F)CC1)c1csc(-c2cnn3cccnc23)n1 (centres unmarked) [IA-20] |  | 42.49 |
| O=C(NCCc1ccccn1)c1csc(-c2cnn3cccnc23)n1 [IA-21] | 488 ± 22 | 44.14 |

| Compound | IC50 [nM] | Inhibition rate (%) |
| --- | --- | --- |
| O=C(NCc1cncnc1)c1csc(-c2cnn3cccnc23)n1 [IA-22] |  | 32.73 |
| O=C(c1csc(-c2cnn3cccnc23)n1)N1CCN(c2cccnc2)CC1 [IA-23] | 350 ± 17 | 60.57 |
| CC(C)=CCC/C(C)=C/CNC(=O)c1csc(-c2cnn3cccnc23)n1 [IA-24] | 457 ± 30.6 | 55.71 |
| Cc1cnc2c(-c3nc(C(=O)NCCc4ccccn4)cs3)cnn2c1 [IA-25] |  | 37.24 |
| O=C(c1nc(C(=O)N2CCC[C@H]2c2cccnc2)cs1)c1c[nH]c2ccccc12 [IIA-1] |  | 65.32 |
| CC(C)=CCC/C(C)=C/CC/C(C)=C/COC(=O)c1csc(C(=O)c2c[nH]c3ccccc23)n1 [IIA-2] |  | 25.83 |
| C#COC(=O)c1csc(C(=O)c2c[nH]c3ccccc23)n1 [IIA-3] |  | 47.15 |
| CC(C)=CCOC(=O)c1csc(C(=O)c2c[nH]c3ccccc23)n1 [IIA-4] |  | 48.95 |
| CC(C)=CCC/C(C)=C/COC(=O)c1csc(C(=O)c2c[nH]c3ccccc23)n1 [IIA-5] |  | 57.51 |
| O=C(NCc1cccnc1)c1csc(C(=O)c2c[nH]c3ccccc23)n1 [IIA-6] | 479 ± 14.2 | 56.46 |
| CC1CCC2(OC1)OC1CC3C4CC=C5CC(OC(=O)c6csc(C(=O)c7c[nH]c8ccccc78)n6)CCC5(C)C4CCC3(C)C1C2C (centres unmarked) [IIA-7] |  | 38.74 |
| CC(C)CCCC(C)C1CCC2C3CC=C4CC(OC(=O)c5csc(C(=O)c6c[nH]c7ccccc67)n5)CCC4(C)C3CCC12C (centres unmarked) [IIA-8] |  | 50.45 |
| CCC(CCC(C)C1CCC2C3CC=C4CC(OC(=O)c5csc(C(=O)c6c[nH]c7ccccc67)n5)CCC4(C)C3CCC12C)C(C)C (centres unmarked) [IIA-9] |  | 48.2 |
| CC1CCC2(OC1)OC1CC3C4CC=C5CC(NC(=O)c6csc(C(=O)c7c[nH]c8ccccc78)n6)CCC5(C)C4CCC3(C)C1C2C (centres unmarked) [IIA-10] |  | 23.57 |
| Cc1c(COC(=O)c2csc(C(=O)c3c[nH]c4ccccc34)n2)cccc1-c1ccccc1 [IIA-11] |  | 25.08 |
| CC(=O)NCCNC(=O)c1csc(C(=O)c2c[nH]c3ccccc23)n1 [IIA-12] |  | 27.93 |
| COC(=O)C(CO)NC(=O)c1csc(C(=O)c2c[nH]c3ccccc23)n1 (centres unmarked) [IIA-13] |  | 43.99 |
| O=C(NCc1ccc(F)cc1F)c1csc(C(=O)c2c[nH]c3ccccc23)n1 [IIA-14] |  | 37.99 |
| O=C(NCCCN1CCCC1)c1csc(C(=O)c2c[nH]c3ccccc23)n1 [IIA-15] |  | 28.53 |

| Compound | IC50 [nM] | Inhibition rate (%) |
| --- | --- | --- |
| O=C(Nc1cccnc1)c1csc(C(=O)c2c[nH]c3ccccc23)n1 [IIA-17] |  | 59.31 |
| O=C(c1nc(C(=O)N2CCC[C@H]2c2ccccc2)cs1)c1c[nH]c2ccccc12 [IIA-18] |  | 50.6 |
| O=C(NCc1ccccc1)c1csc(C(=O)c2c[nH]c3ccccc23)n1 [IIA-19] |  | 46.55 |
| O=C(NCCc1ccncc1)c1csc(C(=O)c2c[nH]c3ccccc23)n1 [IIA-20] |  | 42.64 |
| O=C(c1nc(C(=O)N2CCC[C@H]2c2ccncc2)cs1)c1c[nH]c2ccccc12 [IIA-21] |  | 54.35 |
| O=C(c1nc(C(=O)N2CCCCC2C(=O)O)cs1)c1c[nH]c2ccccc12 (centres unmarked) [IIA-22] | 479 ± 9.88 | 53.75 |
| O=C(c1nc(C(=O)N2C[C@H](O)C[C@H]2C(=O)O)cs1)c1c[nH]c2ccccc12 [IIA-23] | 439 ± 25.3 | 58.56 |
| O=C(NC(CO)C(=O)O)c1csc(C(=O)c2c[nH]c3ccccc23)n1 (centres unmarked) [IIA-24] | 421 ± 19.9 | 59.91 |
| COC(=O)C1CCCCN1C(=O)c1csc(C(=O)c2c[nH]c3ccccc23)n1 (centres unmarked) [IIA-25] |  | 49.85 |
| COC(=O)[C@@H]1C[C@@H](O)CN1C(=O)c1csc(C(=O)c2c[nH]c3ccccc23)n1 [IIA-26] |  | 45.05 |
| O=C(NCC(F)(F)F)c1csc(C(=O)c2c[nH]c3ccccc23)n1 [IIA-27] |  | 51.8 |
| O=C(c1nc(C(=O)N2CCCC2c2cc(F)ncc2F)cs1)c1c[nH]c2ccccc12 (centres unmarked) [IIA-28] |  | 54.05 |
| O=C(NCCC(F)(F)F)c1csc(C(=O)c2c[nH]c3ccccc23)n1 [IIA-29] |  | 43.54 |
| CC(C)=CCC/C(C)=C/CNC(=O)c1csc(C(=O)c2c[nH]c3ccccc23)n1 [IIA-30] |  | 26.88 |
| O=C(OCc1cn(CCc2ccccc2)nn1)c1csc(C(=O)c2c[nH]c3ccccc23)n1 [IIB-1] |  | 45.65 |
| O=C(OCc1cn(Cc2ccc3ccccc3c2)nn1)c1csc(C(=O)c2c[nH]c3ccccc23)n1 [IIB-2] |  | 49.4 |
| O=C(OCc1cn(CCCCCCBr)nn1)c1csc(C(=O)c2c[nH]c3ccccc23)n1 [IIB-3] | 468 ± 20.1 | 39.79 |
| O=C(OCc1cn(CCCCCCO)nn1)c1csc(C(=O)c2c[nH]c3ccccc23)n1 [IIB-4] |  | 21.17 |
